The subject of data set [1] is A549 (Lung cancer). The data set can be described thus: MTT assay, A549. Type of data set: cell-based. Particulars: Homo sapiens, A549; MTT, 48 hrs; read-out: A549 IC50. On the procedure: (§1) A431 (Skin cancer), Colo-205 (Colon cancer), A549 (Lung cancer) cell lines were obtained from National Center for Cell science (NCCS), Pune, India. DMEM (Dulbeccos Modified Eagles Medium), MTT [3-(4,5-dimethylthiazol-2-yl)-2,5-diphenyl tetrazolium bromide], Trypsin, EDTA were purchased from Sigma Chemicals Co (St. Louis, Mo.), Fetal bovine serum were purchased from Arrow labs, 96 well flat bottom tissue culture plates were purchased from Tarson.
(§2) A431, Colo-205, A549 cell lines were grown as adherent cells in DMEM media supplemented with 10% fetal bovine serum, 100 μg/ml penicillin, 200 μg/ml streptomycin, 2 mM L-glutamine, and culture was maintained in a humidified atmosphere with 5% CO2. Stock solution of 10 mg/ml was prepared for test molecules in DMSO. From the stock, various dilutions were made with sterile water to get required concentration. A431, Colo-205, A549 cell lines were seeded at a density of 1×10^4 cells (cell number was determined by Trypan blue exclusion dye method) per each well in 100 μl of DMEM supplemented with 10% FBS. 12 hrs after seeding, above media was replaced with fresh DMEM supplemented with 10% FBS. Then, 10 μl sample from above stock solutions were added to each well in triplicates which gives final concentration of 100, 50, 25, 10 μg/well. The above cells were incubated for 48 hrs at 37° C. with 5% CO2. After 48 hrs incubation the above media was replaced with 100 μl of fresh DMEM with out FBS and to this 10 μl of MTT (5 mg dissolved in 1 ml of PBS) was added and incubated for 3 hrs at 37° C. with 5% CO2. After 3 hrs of incubation, the above media was removed with multi channel pipette, then 200 μl of DMSO was added to each well and incubated at 37° C. for 15 min. Finally, the plate was read at 570 nm using spectrophotometer (Spectra Max, Molecular devices).

For data set [2], the system named is Colo-205 (Colon cancer). The data set can be described thus: MTT assay, Colo-205. Type of data set: cell-based. Particulars: Homo sapiens, COLO 205; MTT, 48 hrs; read-out: Colo-205 IC50. Here is the method: as §1, §2
In data set [3] the test system is crude intestinal α-glucosidase. The data set can be described thus: In-vitro mammalian (rat intestinal) α-glucosidase inhibition assay. It is filed as biochemical. An excerpt: Chemicals: α-Glucosidase [(EC 3.2.1.20) Type I: from bakers yeast], rat intestinal acetone powder (as a source of crude intestinal α-glucosidase), α-amylase [EC 3.2.1.1) Type VI B: from porcine pancreas], p-nitrophenyl α-D-glucopyranoside, 3,5-dinitro salicylic acid, soluble potato starch and 1-deoxyrojirimycine, were purchased from Sigma Chemical Co., St Louis, Mo., USA. Other chemicals of analytical grade were procured from indigenous manufacturers.
In-vitro a-Glucosidase Inhibition Assay: Yeast and intestinal a-glucosidase inhibitory activities were determined as per reported methods (Babu et al., 2004; Mc Dougall et al., 2005). Rat intestinal acetone powder in normal saline (100% w/v) was sonicated properly and the supernatant was used as a source of crude intestinal a-glucosidase after centrifugation. In brief, 20 μl, of test samples (100 mg/ml DMSO solution) were reconstituted in 100 μl of 100 mM-Phosphate buffer (pH 6.8) in a 96-well microplate and incubated with 50 μl yeast a-glucosidase (0.76 μ/ml in same buffer) or crude intestinal a-glucosidase for 5 min before 50-μl substrate (5 mM, […] prepared in same buffer) was added. Release of p-nitrophenyol was measured at 405 nm spectrophotometrically (Spectra Mas Plus 384, Molecular Device corporation, Sunnyvale, Calif., USA) 5 min after incubation with substrate, individual blank for test samples were prepared to correct background absorbance where the substrate was replaced with 50 μl of buffer. The control sample contained 20 μl DMSO in place of test samples. The percentage of enzyme inhibition was calculated as (A−B/A)×100 where A is represents the absorbance of the control without test samples, and B represents the absorbance in the presence of test samples. […] The IC50 values were calculated by applying logarithmic regression analysis from the mean inhibitory values.

For data set [4], the system named is Wistar rats. The data set can be described thus: Carrageenan induced paw edema model. Type of data set: in vivo, rat. Particulars: Rattus norvegicus, test compounds 100 mg/kg oral, Indomethacin 10 mg/kg oral, 3 hrs after Carrageenan. On the procedure:
Male Albino Wistar rats of 150-180 grams were used for the experiments.
Anti-inflammatory activity of test compounds was evaluated in Wistar rats employing the method of Winter et al (1963) and Diwan et al (1989). Male Wistar rats were used for the study. […] The different test compounds were administered to the animals in the test group at the dose of 100 mg/kg, by oral route. Animals in the standard group received Indomethacin at the dose of 10 mg/kg, by oral route. All test and standard compounds were administered as 1% gum acacia suspension. Rats in the control group received the vehicle solution without drugs. One hour after test drugs administration, rats in all the groups were challenged with 0.1 ml of 1% Carrageenan in the sub plantar region of right hind paw. A zero hour paw volume was measured for all the rats using digital plethysmometer (Ugo Basile, Italy) before the administration of carrageenan for all groups. Paw volumes were again measured 3 hrs after the challenge of Carrageenan. The percent inhibition of paw volume for each rat in treated groups was calculated by comparing with mean paw volume of control group and expressed as mean (±SE) percent inhibition of paw volume for each test. In a preliminary study the compounds that have shown good activity were evaluated for dose response study by using above procedure.

For data set [5], the system named is mice. The data set can be described thus: Adenosine mediated bronchoconstriction and lung inflammation in an allergic mouse model. It is filed as in vivo. Particulars: BAL fluid cells; 100 mg/kg oral. Also on record: Total count: unit not given here. On the procedure:
Thienopyridines were proven as potent cytotoxic and anti-inflammatory agents in the previous experimental results. In cytotoxic MTT assay, activity of these molecules may be due to the involvement of adenosine receptors. Further, to find the bronchodilatory activity of these moieties and to find the involvement of adenosine receptors in their action, non-invasive and invasive adenosine mediated bronchoconstriction and lung inflammation in an allergic mouse model was performed.
Male mice, 6-8 weeks of age, free of specific pathogens were obtained from National Institute of Nutrition. The animals were maintained on a ragweed-free diet. All experimental protocols used in this study were under a protocol approved by animal ethical committee. Sensitization was performed according to the modified procedure described by Fan et al, 2002. Mice were sensitized on days 1 and 6 with i.p. injections of ragweed allergen (200 μg/200 μl of water for injection). Non-sensitized control animals received only water for injection with the same volumes. Ten days after sensitization, the mice were placed in plexiglas chamber and challenged with 0.5% ragweed or with 0.9% saline as a control for twenty minutes both in the morning and evening for three days. Then mice were divided into different groups consisting of six animals each. The groups including a control without sensitization; a sensitized group and a standard group along with groups of the test molecules were separated. Twenty-four hours after last challenge with ragweed, the mice were given an oral dose of test molecules and theophylline (100 mg/kg body weight) as acacia suspension. Two hours after administration of the oral dose, the mice were challenged with adenosine solution (24 mg/ml). The variation in respiration was recorded after anaesthetizing them with pentobarbitone sodium (0.1 ml 200 mg/ml ip) using kymograph. Then, mice were sacrificed and trachea was cannulated to collect the bronchoalveolar lavage fluid. This was performed by pumping 1 ml phosphate buffered saline into lungs through tracheal cannula and collecting the sample. Analysis of BAL fluid was performed to get the cellular differentials. The BAL fluid was centrifugated at 1500 rpm for six minutes at room temparature. After removing the supernatant, BAL cells were resuspended in 1 ml of phosphate buffered saline. Total cells were then counted manually in a hemocytometer chamber. A differential count of at least 300 cells was made according to the standard morphologic criteria and results were mentioned in table.

Data set [6] deals with A431 (Skin cancer) cell lines. The data set can be described thus: MTT assay, A431. It is filed as cell-based. Conditions: Homo sapiens, A-431; MTT, 48 hrs; read-out: A431 cell lines IC50. Here is the method: as §1, §2

Each structure is given as a SMILES string. In brackets after ≈: the same amount, converted by molar mass.

The compound `Cc1sc2nc3c(c(N)c2c1C)CCC(C)C3` (stereo not drawn) [BN-3, 2,3,7-Trimethyl-5,6,7,8-tetrahydrothieno[2,3-b]quinolin-4-amine] displayed a melting point of 220 °C. Moreover, in data set [1], the half-maximal inhibitory concentration (IC50) was found to be 43.6 µg/mL (≈ 177 µM). The half-inhibitory concentration (IC50) in data set [2] turned out to be 100 µg/mL (≈ 406 µM). In data set [3], the “Mammalian α-glucosidase inhibitory activity (in words)” value was “moderate inhibitory activity”. Besides, the “Mammalian α Glucosidase Inhibition (Mean ± S.E)” value in data set [3] (highest concentration 5 mg/ml) came to 46.07 ± 0.9%. Besides, the change in vivo at 100 mg/kg in data set [4] (read-out: % Increase in Paw Volume) worked out at 81.4 ± 21%. In addition, the inhibition in vivo at 100 mg/kg in data set [4] (read-out: % Inhibition (paw volume)) worked out at 23.2 ± 5.15%. In addition, in data set [5], the “Differential count (%) Eosinophils” value was found to be 14%, the “Differential count (%) Lymphocytes” value is reported as 75%, the “Differential count (%) Monocytes” value is listed as 15% and the Total count turned out to be 14.5. The IC50 in data set [6] was determined as 33.8 µg/mL (≈ 137 µM).

The record behind these values is patent US20110269790A1, “NOVEL THIENOPYRIDINES AS PHARMACOLOGICALLY ACTIVE AGENTS” (priority 2009, published 2011).
